Data reported in PubChem BioAssay AID624344 (Sanford-Burnham Center for Chemical Genomics, 2012).
Calls of active or inactive are those of the source. No rule for the calls is given here.

Assays:
[1] = test system: Cytotoxicity; assay: inhibitors of PAF-induced NFkB signaling in CF airway cells, dose response, cell-based, uHTS hits, panel, cytotoxicity readout (AID 624344); details: CF bronchial epithelial cells, mean of runs
[2] = as above; details: CF bronchial epithelial cells, PAF-induced NFkB reporter inhibition; with PAF, mean of runs

| SMILES | IC50 [1] | IC50 [2] |
| --- | --- | --- |
| CC(C)CNC(=O)c1coc(=O)c(Br)c1 | 8.73 µM | 4.35 µM |
| C=C1C(=O)[C@]23C[C@H]1CCC2[C@@]1(C)C(C[C@@H]3O)[C@](C)(C(=O)O)CC[C@@H]1O (some centres not stated) | 13.1 µM | 1.98 µM |
| COc1cc2oc(=O)cc(-c3ccc(-c4ccc(N(C)C)cc4)cc3)c2c(OC)c1OC | 39.9 µM | 11.6 µM |
| C=C1C(=O)[C@]23C[C@H]1CC[C@H]2[C@]1(C)[C@@H](OC(C)=O)CC[C@@](C)(C(=O)O)[C@H]1C[C@@H]3O | 8.28 µM | 0.938 µM |
| CCC(=O)Nc1nc(C)c(-c2csc(Nc3cccc(O)c3)n2)s1 | > 79 µM (inactive) | 3.06 µM |
| CS(=O)(=O)c1ccc2nc(NC(=O)CCS(=O)(=O)c3ccccc3)sc2c1 | > 79 µM (inactive) | 4.88 µM |
| O=C(COC(=O)c1ccc2[nH]c3c(c2c1)CCCC3)Nc1ccccc1Cl | 36.6 µM | inactive |
| CC(C)=CCc1c(O)cc(O)c2c1OC(c1ccc(O)cc1)CC2=O (configuration not stated) | 43.6 µM | 4.52 µM |
| O=C(c1nnsc1S(=O)(=O)c1ccc(Cl)cc1)N1CCOCC1 | 9.67 µM | 3.85 µM |
| CC(=O)Nc1ccc(NC(=O)COC(=O)c2c3c(nc4ccccc24)CCN(Cc2ccccc2)C3)cc1 | 4.16 µM | 5.27 µM |
| Clc1ccccc1C1=Nn2c(nnc2-c2ccncc2)SC1 | > 79 µM (inactive) | 0.624 µM |
| CC1(Cc2cccc(F)c2)C(=O)Nc2ccc(-c3cccnc3)cc21 (configuration not stated) | 67.9 µM (inactive) | 1.58 µM |
| Cn1nnnc1Sc1ncnc2scc(-c3ccc[nH]3)c12 | 6.95 µM | 14.7 µM |
| Cc1nn(-c2cccc(Cl)c2)c2nc(C(F)(F)F)[nH]c(=O)c12 | 27.4 µM | 16.9 µM |
| O=C(Nc1ccccc1)Nc1ncc([N+](=O)[O-])s1 | 12.6 µM | 2.73 µM |
| C#CCN(C[C@@H]1[C@@H](OC(=O)NC2CC2)[C@@H](OC(=O)NC2CC2)Cn2c(=O)ccc(=O)n21)S(=O)(=O)c1ccc(C)cc1 | 19.2 µM | 2.73 µM |
| CCOc1ccc(C(C(=O)NC2CCCC2)N(C(=O)c2snc(C(N)=O)c2N)c2cccc(O)c2)cc1 (configuration not stated) | 7.27 µM | 4.37 µM |
| O=C1Nc2ccccc2/C1=C/c1ccnc2ccccc12 | 36.3 µM | 5.85 µM |
| CC(=O)Oc1ccc(N(C(C)=O)S(=O)(=O)c2ccc(Cl)cc2)c2ccccc12 | 22.8 µM | 7.37 µM |
| CC(=O)Nc1ccc(-c2ccnc3c2CC(C(=O)NCc2ccco2)O3)cc1 (configuration not stated) | > 79 µM (inactive) | inactive |
| O=C(COC(=O)c1c2c(nc3ccccc13)CCN(Cc1ccccc1)C2)Nc1c(F)cccc1F | 2.64 µM | 3.28 µM |

| SMILES | IC50 [1] | IC50 [2] |
| --- | --- | --- |
| O=C(/C=C/c1cccs1)Nc1cccc(NC(=O)/C=C/c2cccs2)n1 | 1.57 µM | 5.98 µM |
| O=C(c1nnsc1S(=O)c1ccc(Cl)cc1)N1CCOCC1 (configuration not stated) | 10.7 µM | 1.87 µM |
| Cc1cccc(NC(=O)Nc2ccc(C#N)cc2)n1 | 20.6 µM | 1.78 µM |
| COC(=O)C1=C(C(=O)OC)[C@@H]2N(Cc3ccccc3)c3ccccc3[C@@]23C[C@@H](C(=O)OC)N(C(=O)c2ccc(Br)cc2)C3=N1 | 28.5 µM | 5.67 µM |
| CC1=C(C(=O)OCc2ccc3c(c2)OCO3)C(c2ccc(O)c([N+](=O)[O-])c2)NC(=O)N1 (configuration not stated) | > 79 µM (inactive) | 1.71 µM |
| CCN(CC(=O)Nc1ccc(OC)cc1)C(=O)c1cc(-c2cccs2)nn1-c1ccccc1 | 7.56 µM | 5.29 µM |
| COc1ccc2cc3c(N)nn(C(=O)c4ccc(F)cc4)c3nc2c1 | 36.6 µM | 1.29 µM |
| COc1ccc2c(c1OC)C(=O)OC2Nc1nc(-c2ccccc2)cs1 (configuration not stated) | 32.7 µM | 0.66 µM |
| CC(C)C[C@H]1CNC(=S)N1C[C@H]1CCCN1C[C@H](Cc1ccccc1)N1C[C@H](Cc2ccc(O)cc2)N(CC2CCCCCC2)C1=S | 28.6 µM | 15.3 µM |
| O=C(OC1CCOC1=O)c1ccccc1C(=O)c1ccc(Cl)c([N+](=O)[O-])c1 (configuration not stated) | 7.46 µM | 4.44 µM |
| CCc1cc(SC#N)cc(C)c1NC(=O)CCl | 43.5 µM | 5.47 µM |
| NC(=S)N1OC[C@@H]2COc3ccc4ccccc4c3[C@@H]21 | 31.2 µM | 4.75 µM |
| CCOc1ccc(-n2c(C)c(C(C)=O)c3cc(O)ccc32)cc1 | > 79 µM (inactive) | 1.87 µM |
| Cc1cccc2sc(N(CCCN(C)C)C(=O)CCS(=O)(=O)c3ccccc3)nc12 | 7.52 µM | 3.22 µM |
| C[C@]12CCC(O)CC1CCC1C2CC[C@]2(C)C(c3cc(C(F)(F)F)n[nH]3)CCC12 (some centres not stated) | 5.25 µM | 1.92 µM |
| COc1ccc(-c2cn[nH]c2-c2ccc(OCc3ccccc3F)cc2O)cc1OC | 18 µM | 3.57 µM |
| COc1ccccc1NC(=O)c1cc2c(CO)cnc(C)c2oc1=Nc1ccc(OC)c(OC)c1 | 12.2 µM | 9.49 µM |
| COc1cccc(CN(C)C(=O)C(CCSC)NS(=O)(=O)c2ccc3c(c2)OCCO3)c1OC (configuration not stated) | 13.3 µM | 3.4 µM |
| COc1cc(C2c3cc4c(cc3CC3COC(=O)C32)OCO4)cc(OC)c1O (configuration not stated) | > 79 µM (inactive) | > 79 µM (inactive) |
| CCCCN(c1ccccc1)c1ncnc(N)c1[N+](=O)[O-] | > 79 µM (inactive) | 1.08 µM |
| Cc1nc2c(O)c3c(c(O)c2nc1C)C1C=CC3CC1 | 7.03 µM | 5.67 µM |

| SMILES | IC50 [1] | IC50 [2] |
| --- | --- | --- |
| COC(=O)N1C(=O)[C@@](c2ccccc2)(C(C)C)N1C(=O)OC | 38.7 µM | 4.26 µM |
| Cc1nnc(NC(=O)Nc2ccc(Cl)c(Cl)c2)s1 | 15.3 µM | 2.78 µM |
| COc1ccccc1-c1cc(NC=O)c2ncc(-c3ccc(F)cc3)n2c1 | 46.1 µM | 4.08 µM |
| CN(C)CCCN(C(=O)CCS(=O)(=O)c1ccccc1)c1nc2cc3c(cc2s1)OCO3 | 7.47 µM | 1.7 µM |
| Cc1nnc(SCC(=O)N2CCC(c3noc4ccc(F)cc34)CC2)s1 | > 79 µM (inactive) | 1.18 µM |
| C[C@@H]1CN([C@H](C)CO)C(=O)c2cc(NC(=O)Nc3ccc(C(F)(F)F)cc3)ccc2O[C@H]1CN(C)S(=O)(=O)c1ccc(Cl)cc1 | > 79 µM (inactive) | 14.1 µM |
| CC1C(c2ccccc2)OCCN1C(=S)Nc1ccc(S(=O)(=O)N2CCCCC2)cc1 (configuration not stated) | 56.5 µM (inactive) | 9.52 µM |
| Cc1cc(C)cc(NS(=O)(=O)c2ccc(-c3cnc(C4CC4)o3)cc2)c1 | 40.9 µM | 12.1 µM |
| Cn1c(Sc2ccc(Br)cc2)c(C=O)c2ccccc21 | 5.64 µM | 1.4 µM |
| Cc1nc(N)c(C#N)c(-c2cccnc2)c1-c1ccccc1 | 62.9 µM (inactive) | 4.45 µM |
| O=c1c(O)c(-c2ccccc2)oc2cc(O)cc(O)c12 | 54 µM (inactive) | 3.27 µM |
| Nc1nc(/C=C/c2cccnc2)nc(-c2ccccc2O)n1 | 6.48 µM | 4.73 µM |
| CC(C)c1nc(Cl)c(C#N)c2c1CCCC2 | 71.6 µM (inactive) | 3.57 µM |
| COc1ccc(-n2ncc3c(N4CCN(Cc5ccccc5)CC4)ncnc32)cc1 | 6.95 µM | 3.85 µM |
| c1cc(-c2cnc3cccnn23)c2cccnc2c1 | > 79 µM (inactive) | 2.33 µM |
| Cc1[nH]nc2ncc(C(=O)c3ccccc3O)cc12 | 24.3 µM | 1.68 µM |
| Cc1ccnc(NC(=O)CSc2cc(=O)n(C)c3ccccc23)c1 | 39.4 µM | 7.95 µM |
| Cc1nn(-c2ccccn2)c2c1-c1nc(N)ncc1CC2 | 65.3 µM (inactive) | 6.76 µM |
| OCCNc1nc(Nc2ccc(Cl)c(Cl)c2)nc2ccccc12 | 4.07 µM | 2.16 µM |
| Cc1ccc2nc(SCC(=O)Nc3cc(C(F)(F)F)ccc3N3CCOCC3)[nH]c2c1 | 60.8 µM (inactive) | inactive |
| NS(=O)(=O)c1ccc(CCNc2nn3c(-c4cccc(OC(F)(F)F)c4)cnc3s2)cc1 | 19.7 µM | 3.64 µM |

| SMILES | IC50 [1] | IC50 [2] |
| --- | --- | --- |
| CC1C(=O)N(Cc2cn(Cc3ccco3)nn2)CCS(=O)(=O)N1Cc1ccc(-c2ccccc2C(F)(F)F)cc1 (configuration not stated) | 57.4 µM (inactive) | 14 µM |
| NC(=O)c1c(Br)n(C2OC(CO)C(O)C2O)c2ncnc(N)c12 (configuration not stated) | 3.07 µM | 2.03 µM |
| CCOC(=O)Cc1nnc2c(Nc3ccc(Cl)cc3)nc3nonc3n12 | 1.72 µM | 3.23 µM |
| CC(NC(=O)OCc1ccccc1)C(=O)Oc1cc2oc(=O)cc(-c3ccccc3)c2cc1Cl (configuration not stated) | 27.9 µM | 1.34 µM |
| COc1ccc(-c2cn[nH]c2-c2ccc(OC)cc2O)cc1 | 46.4 µM | 2.92 µM |
| Cc1ccc(C(=O)Nc2cccc(C(F)(F)F)c2)cc1NC(=O)c1ccno1 | > 79 µM (inactive) | 0.626 µM |
| Cc1c(NC(=O)c2cc(-c3cccs3)nc3ccccc23)c(=O)n(-c2ccccc2)n1C | 8.78 µM | 4.08 µM |
| Oc1ccc(Nc2ncnc3scc(-c4ccccc4)c23)cc1 | 48.7 µM | 12.6 µM |
| FC(F)Sc1ccc(NC(=S)NCC2CCCCC2)cc1 | 7.18 µM | 5.53 µM |
| NC(=O)c1sc2nc3c(c(-c4ccccc4)c2c1N)CCC3 | 60.1 µM (inactive) | 1.17 µM |
| COc1ccc(-c2oc3ccc(-c4ccc5c(c4)OCO5)cc3c2C#CC2(O)CCCCC2)cc1 | 41.3 µM | 2.67 µM |
| O=C(CCS(=O)(=O)c1ccccc1)N(CCCN1CCOCC1)c1nc2c(F)cccc2s1 | 18.1 µM | 7.63 µM |
| COc1ccc(-c2cc(=O)oc3c(C)c(OC(=O)c4cccs4)ccc23)cc1 | > 79 µM (inactive) | 1.6 µM |
| COc1cc(C2c3cc4c(cc3C(O)C3COC(=O)C23)OCO4)cc(OC)c1OC (configuration not stated) | > 79 µM (inactive) | > 79 µM (inactive) |
| NC1(C(=O)O)CSSC1 | 35.6 µM | 7.73 µM |
| CC1(C)Cc2c(ccc3ccccc23)C(=O)N1 | > 79 µM (inactive) | 3.27 µM |
| Cc1[nH]nc2c1-c1nc3ccccc3nc1C(C)(C)C2 | > 79 µM (inactive) | 10.4 µM |
| COc1ccc(-c2cn[nH]c2-c2ccc(O)cc2O)cc1 | > 79 µM (inactive) | 1.76 µM |
